From patent US6949507B2, “Use of agents which bind G proteins for treating septic shock” (Dana-Farber Cancer Institute, Inc., priority 1997, dated 2005)
“Also recorded” adds a separate entry of the source.

How the values were obtained:
human monocytes [1] = experiment: Cell viability by trypan blue uptake; format: cell-based; details: after 36 hours of continuous mastoparan incubation
Protocol: (§1) In order to determine if the effect of mastoparan on LPS-induced cytokine production was due to a direct effect on monocytes, a highly enriched monocyte population was tested for the effect of LPS and mastoparan on cytokine production from these cells. Freshly isolated human monocytes were treated with mastoparan and LPS, after which IL-6 and TFN cytokine levels were measured in the tissue culture supernatants of the cells (FIG. 3A). […] When mastoparan was used in conjunction with LPS, cytokine production was diminished. […] Mastoparan had little effect on cytokine production from PMA stimulated cells (FIG. 3B), indicating the specificity of mastoparan action, and lack of mastoparan toxicity. Mastoparan had no effect on cell viability as measured by trypan blue uptake even after 36 hours of continuous mastoparan incubation.

human monocytes [2] = experiment: LPS-induced IL-6 and TNF production from freshly isolated human monocytes (ELISA); format: cell-based
Text: (§2) Freshly isolated human peripheral blood mononuclear cells (PBMC) and monocytes were obtained from leukopaks (discarded leukocyte from platelet donations). The cells were fractionated on FICOLL-HYPAQUE™ gradients, washed, treated with tris-buffered NH4Cl to eliminate RBCs and washed to obtain PMBCs. Monocytes were obtained by depleting the PBMCs of T cells and NK cells by negative selection asking standard techniques. T cells and NK cells were removed by treatment with anti-CD3 and anti-CD2 monoclonal antibodies followed by goat anti-mouse Ig conjugated magnetic beads at a 10:1 bead:cell ratio. The monocyte preparations were at least 80-85% monocytes, as determined by anti-CD14 staining and forward and slide light scatter analysis using a FACScan (Becton-Dickenson, Elmhurst, Ill.). Less than 2% of the contaminating cells in the monocyte preparation were T cells and no NK cells could be detected. Monocytes were maintained in Ham's F-12 10% FCS, L-Glutamine and penicillin/streptomyocin at 37° C. in 5% CO2.
(§3) Freshly isolated human monocytes, human PBMC and U373-CD14 cells were incubated with 10 ng/ml LPS (E coli 0111:B4, Sigma, St. Louis, Mo.), 100 ng/ml PMA or were untreated in supplemented RPMI [10% FCS; 2 mM L-glutamine and penicillin/streptomycin] with or without various concentrations of mastoparan for 18 hours at 37° C. in 24 well tissue culture dishes. IL-6 and TNF-α levels were determined by ELISA (Endogen Inc., Boston, Mass.) of supernatants harvested at 4 hours (for TNF-α) and at 18 hours (for IL-6) after LPS stimulation.
as §1

U373-CD14 cells = experiment: LPS-induced IL-6 production from U373-CD14 transfectants; format: cell-based
Protocol: U373 cell CD14 transfectants (U373-CD14) were maintained in EMEM supplemented with 10% FCS, L-Glutamine and penicillin/streptomyocin at 37° C. in 5% CO2.
as §3
In addition, the effect of mastoparan on LSP-induced cytokine production from an LPS responsive, CD14 transfected cell line was determined. LPS treatment of U373-CD14 transfectants induced an LPS dose-dependent production of IL-6 (FIG. 4). […] IL-6 production induced by 10 ng/ml LPS was also ablated by treatment of the cells with mastoparan, while at 100 ng/ml of LPS, mastoparan reduced IL-6 levels by approximately one third. At high concentrations of LPS (1 μg/ml) the IL-6 responses of these cells were not inhibited by treatment with the anti-CD14 monoclonal antibody. […] At LPS concentrations of 1 μg/ml, mastoparan was ineffective at reducing cytokine responses from these cells. Thus, CD14-independent LPS signals were not inhibited by mastoparan.

Erk kinases = experiment: Erk 1 and 2 MAP kinase activation in human monocytes (immunoblotting); format: cell-based
Protocol: (§4) For detection of p38, phosphorylated p38 and phosphorylated Erk kinases in monocyte lysates, monocytes were subjected to various treatments and lysed in boiling reducing Laemmli sample buffer. The lysates were subjected to electrophoresis through a 10% SDS PAGE gel and were then transferred to nitrocellulose (NC). After washing twice with TBS-Twwen 20(0.1%) the NC was placed in a solution of Ponceau S dye to ensure equal loading and left in blocking buffer [1×TBS; […]; 5% milk] for 1 hour. After blocking and washing, the NC was incubated with anti-p38 N+C terminus (Santa Cruz Biotechnology Inc., Santa Cruz, Calif.) for 2-3 hours or with anti-phosphorylated p38 and Erk antibodies (New England Biolabs, Inc., Beverly, Mass.) for 18 hours. Membranes were washed three times in TBS-Tween 20 and were incubated for 30 minutes with horseradish peroxidase conjugated donkey-α-rabbit antibody in blocking buffer (Amersham Corp., Arlington Heights, Ill.). Membranes were washed an additional six times [3×TBS-Tween-20; 3×TBS], and were developed by exposure to ECL chemicals (Amersham corp., Arlington Heights, Ill.) and visualized by exposure to film.
The lack of substantial LPS-induced Erk kinase phosphorylation in freshly isolated monocytes is consistent with results obtained with other non-transformed human cells (Nick et al., J. Immunol., 156: 4867-4875, 1996). […]

[3] = tested on: LPS-induced lethal endotoxic shock; experiment: LPS-induced lethal endotoxic shock in rats; format: in vivo, Wistar rats
Protocol: Wistar rats (200 g) were obtained from Charles River Laboratories. Rats were treated with 3 mg/kg mastoparan by intravenous injection in the tail vein, immediately followed by 15 mg/kg lead acetate and 5 μg/kg LPS 0111:B4 intravenously. Mortality was assessed up to 96 hours following LPS treatment. Mortality frequency was compared by Fisher exact test and statistical analysis was performed using Yates corrected Chi square test.
To determine the effect of mastoparan in vivo, the effect of mastoparan on LPS-induced lethal endotoxic shock in rats was assessed.

human monocytes [4] = experiment: PMA-induced cytokine production from human monocytes; format: cell-based; details: 100 ng/ml PMA
Protocol: as §3, §1

p38 MAP kinase = experiment: LPS-induced p38 MAP kinase phosphorylation / nuclear translocation (immunoblotting); format: cell-based, human
Protocol: as §4
For detection of p38 in nuclear extracts, cells after a variety of treatments were subject to lysis and nuclear extraction as described in Lerder et al., J. Immunol. 152:77-86 (1994). The nuclear extracts were subjected to protein quantitation by Micro BCA assay (Pierce, Rockford, Ill.) using a BSA standard. The details of the blotting procedure were the same as above except that […] of extract was used.
Because mastoparan had profound effects on cytokine production and p38 MAP kinase is involved,in LPS induced-signaling, the effect of mastoparan on MAP kinase activation was evaluated. For full activation, p38 MAP kinase requires phosphorylation on both threonine and tyrosine residues (Raingeaud et al., J. Biol. Chem., 270: 7420-7426, 1995). Detection of dual-phosphorylated p38 MAP kinase by monoclonal antibodies specific for the dual-phosphorylated form of p38 was used as a measure of p38 activation. […]

human PBMCs = experiment: LPS-induced IL-6 production from human PBMCs (ELISA); format: cell-based; details: for inhibition of LPS-induced IL-6 production: LPS stimulated human PBMCs, 10 ng/ml LPS, IL-6 at 18 hours
Text: as §2, §3
Freshly isolated PBMCs were treated with LPS and/or peptides (mastoparan or the MAS-17 control peptide) and IL-6 levels were measured in the tissue culture supernatants of the cells (FIG. 2). PBMCs produced IL-6 in response to LPS, while neither mastoparan nor MAS-17 stimulated IL-6 production from the PBMCs.

[5] = LPS-stimulated, various concentrations of mastoparan (FIG. 3A)
[6] = 3 mg/kg mastoparan i.v. + lead acetate + 5 μg/kg LPS, dead/total

mastoparan was tested, and the “cell viability as measured by trypan blue uptake” value (human monocytes [1]) was “no effect”, the “inhibition of IL-6 production in human monocytes” value (human monocytes [2]; [5]) was “dose-dependent inhibition” and the “inhibition of TNF-α production in human monocytes” value (human monocytes [2]; [5]) was “dose-dependent inhibition”. For the same substance, the LPS-induced cytokine production (human monocytes [2]; human monocytes, 13.34 μM mastoparan) was “totally ablated”, the “IL-6 production induced by mastoparan alone” value (human monocytes [2]; human monocytes, without LPS) was “induced neither” and the “TNF production induced by mastoparan alone” value (human monocytes [2]; human monocytes, without LPS) was “induced neither”. The “reduction of IL-6 production in monocytes stimulated with LPS” value (human monocytes [2]; mastoparan as low as 1.67 μM) was “dramatic reductions”, the “reduction of TNF production in monocytes stimulated with LPS” value (human monocytes [2]; mastoparan as low as 1.67 μM) was “dramatic reductions” and the “LPS-induced cytokine production from human monocytes” value (human monocytes [2]; mastoparan in conjunction with LPS, concentration not given) was “inhibition; also recorded: diminished”. For the same substance, the “IL-6 production induced by LPS” value (U373-CD14 cells; U373-CD14 cells, 10 ng/ml LPS) was “ablated”, the “reduction of IL-6 levels” value (U373-CD14 cells; U373-CD14 cells, 100 ng/ml LPS) was “approximately one third” and the “IL-6 / cytokine responses at high LPS (CD14-independent)” value (U373-CD14 cells; U373-CD14 cells, 1 μg/ml LPS) was “ineffective”. For the same substance, the “CD14-dependent LPS induced signal transduction” value (U373-CD14 cells; U373-CD14 transfected cells (FIG. 4)) was “inhibits”, the “Erk kinase activation induced by LPS” value (Erk kinases) was “specific inhibition; also recorded: completely inhibited” and the “Erk kinase activation induced by PMA” value (Erk kinases) was “minimal effects”. For the same substance, the “Mortality Total (%)” value ([3]; 3 mg/kg mastoparan i.v. + lead acetate + 5 μg/kg LPS) was 44.4%, the “Mortality 14 hours” value [3, 6] was 7/18 and the “Mortality 24 hours” value [3, 6] was 8/18. For the same substance, the “protection from LPS induced mortality” value ([3]; 3 mg/kg mastoparan i.v., 15 mg/kg lead acetate and 5 μg/kg LPS i.v., p<0.05 at 14 and 24 hours) was “significantly protect”, the “mortality at 96 hours relative to the 24 hour point” value ([3]; experiment continued for 96 hours) was “unchanged” and the “toxic effects when used alone in the model system” value ([3]; mastoparan alone, data not shown) was “did not have any toxic effects”. The “cytokine production from PMA stimulated cells” value (human monocytes [4]) was “little effect”, the “LPS-induced p38 MAP kinase activity” value (p38 MAP kinase; FIG. 5B) was “reduces” and the “LPS-induced phosphorylation of p38 MAP kinase” value (p38 MAP kinase; monocytes and PBMC) was “inhibition; also recorded: reduced”. For the same substance, the “LPS-induced nuclear translocation of p38” value (p38 MAP kinase; nuclear extracts) was “inhibited”, the “inhibition of LPS-induced IL-6 production” value (human PBMCs) was “potent inhibitor” and the “inhibition of LPS-induced IL-6 production” value (human PBMCs; listed as mastoparan) was “inhibits; also recorded: dose-dependent”. For the same substance, the “LPS-induced IL-6 production” value (human PBMCs; human PBMCs, 13.3 μM mastoparan) was “totally ablated” and the “IL-6 production stimulated by peptide alone” value (human PBMCs; human PBMCs, peptide without LPS) was “neither”.
